Patent US9296760B2, “Antibacterial compounds” (JANSSEN SCIENCES IRELAND UC, priority 2012, dated 2016)
≈ marks a conversion by molar mass, not a printed value.

Experiments:
S. aureus = assay: Antibacterial susceptibility testing, IC90 determination with 10% human serum; format: cell-based, Staphylococcus aureus; details: Staphylococcus aureus, S. aureus with human serum at final concentration of 10%; read-out: STA + 10% HS (361.169) IC90
Protocol: (§1) Antibacterial Susceptibility Testing: IC90 Determination MIC assays were performed by the broth microdilution method in a 96-well format (flat-bottom microtitre plates) with a final volume of 0.1 ml Mueller Hinton broth containing two-fold serial dilutions of compounds and inoculated with 5×10^5 CFU/ml of bacteria (standard inoculum size according to CLSI guidelines). Inhibitors are typically varied over the range of 63 to 0.49 μM. The final DMSO concentration in the assay was 1.25% (maximum tolerable DMSO concentration=6%). In the assays where the effect of human serum on the activity of the compounds against S. aureus was tested, human serum was added at a final concentration of 10%. The plates were incubated at 35° C. for 16-20 hours. At the end of incubation the bacterial growth was quantified fluorometrically. For this, resazurin was added to all wells and the plates were re-incubated. The incubation time is dependent on the type of bacteria. A change in color from blue to pink indicated the growth of bacteria. The fluorescence was read in computer-controlled fluorometer (Fluoroskan Ascent FL, Labsystems) at an excitation wavelength 540 nm and an emission wavelength of 590 nm. The % growth inhibition achieved by the compounds was calculated according to standard methods. The IC90 (expressed in μg/ml) was defined as the 90% inhibitory concentration for bacterial growth. A panel of reference compounds were simultaneously tested for QC approval. The results are depicted in the table(s) below (STA+10% HS).

[1] = tested on: Staphylococcus aureus ATCC 29213; assay: Antibacterial susceptibility testing, IC90 determination (broth microdilution, resazurin); format: cell-based; details: Staphylococcus aureus, ATCC29213, S. aureus ATCC 29213; 90% inhibitory concentration for bacterial growth; read-out: STA (361.159) IC90
Protocol: Y.2 In Vitro Method for Testing Compounds for Antibacterial Activity Against Various Bacterial Strains
Preparation of Bacterial Suspensions for Susceptibility Testing
The following bacteria were used: Staphylococcus aureus ATCC 29213, methicillin-resistant Staphylococcus aureus (MRSA) ATCC 700788 and Escherichia coli ATCC 35218. The bacteria used in this study were grown overnight in flasks containing 100 ml Mueller-Hinton broth (Difco cat. nr. 0757-17) in sterile de-ionized water, with shaking, at 37° C. Stocks were store at −70° C. until use.
Bacteria were incubated on a tryptic soy agar plate containing 5% sheep blood (Becton Dickinson cat. nr. 254053) for 18-24 hours at 35° C. in aerobic conditions (first passage). For the second passage, fresh Mueller-Hinton broth is inoculated with 5-10 colonies and grown overnight at 35° C. until turbidity (reaching log-phase) in aerobic conditions is reached. The bacterial suspension is then adjusted to 0.5 McFarland density and further diluted 1:100 in Mueller Hinton broth medium. This is used as inoculum.
The result(s) are depicted the table below (for STA ATCC 29213).
Antibacterial Susceptibility Testing: IC90 Determination
as §1, with “MIC” for “Antibacterial Susceptibility Testing: IC90 Determination MIC”, “approval.” for “approval. The results are depicted in the table(s) below (STA+10% HS).”

Cytotoxicity MTT assay = format: cell-based, Human; details: human, HelaM cells, read-out: HELAM (222.125) CC50
Protocol: Cytotoxicity of the compounds was evaluated using the MTT assay. Human HelaM cells grown in 96-well plates were exposed to serial dilutions of the tested compounds (final volume of 0.2 ml) and incubated for 72 hours at 37° C. and 5% CO2 Inhibitors are typically varied over the range of 25 to 0.8 μM. The final DMSO concentration in the assay is 0.5%. MTT (3-(4,5-Dimethylthiazol-2-yl)-2,5-diphenyltetrazolium bromide, a tetrazole) was added and reduced to purple formazan only in living cells. Solubilization of the formazan crystals was achieved by adding 100 μl 2-propanol. Cell viability was determined by measuring the absorbance of the reduced formazan, giving a purple color, at 540 nm and 690 nm. The absorbance measured at 690 nm was automatically subtracted from the absorbance at 540 nm, to eliminate the effects of non-specific absorption. The percent cytotoxicity achieved by the compounds was calculated according to standard methods. Cytotoxicity is reported as CC50, the concentration that causes a 50% reduction in cell viability.
The results are depicted in the table(s) below (HELAM).

[2] = biological target: T1, S. aureus ATCC 29213 FabI (Staphylococcus aureus, UniProt Q6GI75); assay: Staphylococcus aureus FabI enzyme inhibition assay; format: biochemical; details: NADH consumption, 30 minutes, read-out: FabI (300.235) IC50 (converted)
T1 sequence (Q6GI75 1-256): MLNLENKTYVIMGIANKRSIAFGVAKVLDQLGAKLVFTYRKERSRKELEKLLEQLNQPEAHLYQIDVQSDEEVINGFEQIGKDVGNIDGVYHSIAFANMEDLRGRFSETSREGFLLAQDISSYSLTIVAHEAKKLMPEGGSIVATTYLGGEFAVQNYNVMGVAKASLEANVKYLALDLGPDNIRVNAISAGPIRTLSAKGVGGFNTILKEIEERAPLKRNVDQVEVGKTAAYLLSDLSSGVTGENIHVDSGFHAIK
Protocol: Y.1 FabI Enzyme Inhibition: Staphylococcus aureus FabI Enzyme Inhibition Assay
FabI enzyme inhibition assays were carried out in half-area, 384-well microtitre plates. […] The reaction mixtures were incubated for 30 minutes at room temperature and the reaction was stopped by adding 200 mM Tris buffer (pH 9.0) to create a pH-shift. The consumption of NADH was monitored by measuring the change in absorbance at […]. By comparing sample readings to those of negative (absence of compound) and positive (absence of enzyme) controls, the percent inhibition of enzymatic activity of the compounds was determined A best-fit curve is fitted by a minimum of squares method. From this an IC50-value (expressed in μg/ml), resulting in 50% inhibition of enzymatic activity, was obtained.

Structure (SMILES)	IC90 (S. aureus) [µg/mL]	IC90 [1] [µg/mL]	melting point [°C]	CC50 at 72 h (Cytotoxicity MTT assay) [µg/mL]	IC50 [2] [nM]
CC(=O)Nc1ccc(/C=C/C(=O)N2CC=C(c3ccccc3)CCC2)cn1 [compound 12]	1.9	1.3 (≈ 3.6 µM)	188	> 9.08	609
O=C(Nc1ccc(/C=C/C(=O)N2CCC=C(c3ccccc3)CC2)cn1)c1ccncc1 [compound 13]	3.08	1.41 (≈ 3.32 µM)	98	4.29 (≈ 10.1 µM)	1250
O=C(/C=C/c1ccc(Nc2ccccc2)nc1)N1CCC=C(c2ccccc2)CC1 [compound 14]	24.1	1.45 (≈ 3.67 µM)	150	6.27 (≈ 15.9 µM)	2250
Cc1cc(C(=O)Nc2ccc(/C=C/C(=O)N3CCC=C(c4ccccc4)CC3)cn2)no1 [compound 16]	6.71	3.29 (≈ 7.68 µM)	169.37	7.89 (≈ 18.4 µM)	1540
Cn1cnc(C(=O)Nc2ccc(/C=C/C(=O)N3CCC=C(c4ccccc4)CC3)cn2)c1 [compound 17]	8.56	4.29 (≈ 10 µM)	134	13.9 (≈ 32.5 µM)	2410
O=C(Nc1ccc(/C=C/C(=O)N2CCC=C(c3ccccc3)CC2)cn1)C1CCCC1 [compound 18]	> 26.2	6.29 (≈ 15.1 µM)	141	2.62 (≈ 6.31 µM)	2050
CC(C)C(=O)Nc1ccc(/C=C/C(=O)N2CCC=C(c3ccccc3)CC2)cn1 [compound 19]	20.9	6.32 (≈ 16.2 µM)	158	8.52 (≈ 21.9 µM)	1280
O=C(Nc1ccc(/C=C/C(=O)N2CCC=C(c3ccccc3)CC2)cn1)C1CCOC1 (stereo not shown) [compound 20]	11.8	6.69 (≈ 16 µM)	152	10 (≈ 24 µM)	934
Nc1ccc(/C=C/C(=O)N2CC=C(c3ccccc3)CCC2)cn1 [compound 21]	12.9	6.75 (≈ 21.1 µM)	184	4.78 (≈ 15 µM)	3880
O=C(/C=C/c1ccc(NC(=O)C(F)(F)F)nc1)N1CCC=C(c2ccccc2)CC1 [compound 22]	12.1	11.6 (≈ 27.9 µM)	159	8.01 (≈ 19.3 µM)	1080
COc1ccc(F)cc1C1=CCCN(C(=O)/C=C/c2cnc3c(c2)CNCC(=O)N3)CC1 [compound 31]	0.26	< 0.21	192	> 11	~933
COc1ccc(F)cc1C1=CCCN(C(=O)/C=C/c2cnc3c(c2)COCC(=O)N3)CC1 [compound 32]	0.41	0.22 (≈ 0.503 µM)	234	10.1 (≈ 23.2 µM)	1260
CN1CC(=O)Nc2ncc(/C=C/C(=O)N3CCC=C(c4cccs4)CC3)cc2C1 [compound 33]	0.26	0.32 (≈ 0.783 µM)	125 to 126	> 10.3	1250
O=C1CNCc2cc(/C=C/C(=O)N3CCC=C(c4ccccc4)CC3)cnc2N1 [compound 34]	0.38	0.37 (≈ 0.952 µM)	203.18	> 9.76	901
COc1ccc(F)cc1C1=CCCN(C(=O)/C=C/c2cnc3c(c2)COC(=O)N3)CC1 [compound 35]	0.54	0.38 (≈ 0.897 µM)	218.22	6.56 (≈ 15.5 µM)	~1020
O=C1Nc2ncc(/C=C/C(=O)N3CCC=C(c4ccccc4)CC3)cc2CO1 [compound 41]	0.67	0.6 (≈ 1.6 µM)	244.33	> 9.43	986
CN1CC(=O)Nc2ncc(/C=C/C(=O)N3CC=C(c4cccs4)CCC3)cc2C1 [compound 43]	1.32	1.13 (≈ 2.77 µM)	212 to 213	> 10.3	2620
COc1ccc(CN2CC(=O)Nc3ncc(/C=C/C(=O)N4CCC=C(c5ccccc5)CC4)cc3C2)cc1 [compound 44]	3.64	4.8 (≈ 9.44 µM)	198	> 12.8	~2810
O=C1Nc2ncc(/C=C/C(=O)N3CCC=C(c4ccccc4)CC3)cc2CN2CCOCC12 (stereo not shown) [compound 46]	0.53	< 0.22	227.76	> 11.2	562
CC(=O)N1CCN2Cc3cc(/C=C/C(=O)N4CCC=C(c5ccccc5)CC4)cnc3NC(=O)C2C1 (stereo not shown) [compound 47]	0.44	0.25 (≈ 0.515 µM)	208	17.6 (≈ 36.3 µM)	783
O=C1Nc2ncc(/C=C/C(=O)N3CCC=C(c4ccccc4)CC3)cc2CN2CCSCC12 (stereo not shown) [compound 49]	1.23	0.39 (≈ 0.847 µM)	224.06	4.88 (≈ 10.6 µM)	1110
O=C1Nc2ncc(/C=C/C(=O)N3CC=C(c4ccccc4)CCC3)cc2CN2CCOCC12 (stereo not shown) [compound 50]	1.58	0.64 (≈ 1.44 µM)	220	22 (≈ 49.5 µM)	697
O=C1Nc2ncc(/C=C/C(=O)N3CC=C(c4ccccc4)CCC3)cc2CN2CCSCC12 (stereo not shown) [compound 51]	1.6	0.67 (≈ 1.45 µM)	224	5.35 (≈ 11.6 µM)	1110
